Assay results taken from patent publication US20190038602A1, “GRANZYME B INHIBITOR FORMULATIONS AND METHODS FOR THE TREATMENT OF BURNS” (viDA Therapeutics, Inc., priority 2016, published 2019).
Where “and” joins values, the source holds several entries; their conditions need not be identical. Identical values can stand only once.

How the values were obtained:
[1] = Ex vivo pig ear skin permeation, Franz Diffusion Cell System; assay type: in vitro ADME; settings: for Compound A in tape-stripped skin samples, Average: n=3; for Skin concentration (Compound A in tape-stripped skin, single replicates): listed as Compound A
Method: […] Formulations were delivered to the skin over a period of 6 hours and drug permeation was assessed by UPLC-MS/MS analysis of tape-stripped skin and receptor fluid. Receptor fluid samples were collected for analysis at 3 and 6 hour time points.
Compound A permeation through skin was assessed ex vivo by using pig ear skin and a Franz Diffusion Cell System (PermeGear®).
Fresh pig ears were obtained from female Yorkshire/Landrace crosses, between 3.5-5 months old, at Jack Bell Research Centre, Vancouver. Immediately after surgery, pig ears were removed and placed in a double Ziploc® bag and stored at −20° C. freezer until shipment to laboratory site on ice via courier the next day. Upon arrival at the site, pig ears were stored in a segregated container, labeled with harvest and shipment date, in −20° C. freezer and were used prior to their expiry date of 5 weeks. Pig skin was prepared according to “Preparation of Pig Skin Samples for ex vivo Permeation Assays.” Briefly, one day prior to the study, frozen ears were thawed washed with deionized water and blotted dry. After trimming off hair, surface skin was separated from cartilage and fat, and hole-punched into coin shape samples to fit dimensions of Franz cells. Pig ear samples were stored in a petri dish, sealed with parafilm tape, in double Ziploc® bags at −20° C. overnight prior to the study on the following day.
Set up of the diffusion cell system was performed according to “Setup, Operation and Cleaning Procedure for Franz Diffusion Cell System.” Prior to application of formulations, skin integrity of each skin sample was determined by measuring the electrical resistance. The electrical resistance was measured with a Model 878B Dual Display LCR Meter (BK Precision®) connected to two stainless steel electrodes, using a setting of 1 KHz. Measurements were taken at least 30 minutes after mounting skin samples to ensure temperature and humidity equilibration. The donor and receptor chamber were filled with 300 μL and 5 mL of pH 7.4 phosphate buffered saline (PBS), respectively, and both electrodes were immersed in solution without touching the skin membrane. Any skin membrane giving an electrical resistance below 4.0 kΩ was discarded and replaced.
Throughout the permeation assay, all cells were maintained at 32° C. and sink condition was maintained in the receptor fluid. Receptor chambers were filled with 4.75 mL of receptor fluid (pH 7.4 PBS) and were kept stirring for the entire duration of the experiment. Skin samples were mounted above the receptor chamber, in direct contact with the receptor fluid, and then donor chambers were mounted above the skin. Any air bubbles between the skin tissue and the receptor fluid were carefully removed prior to application of formulations. The appropriate formulation (300 μL) was added to the donor chamber and the opening of the cell was covered with Parafilm® to prevent evaporation of the test article. Three skin samples per formulation (N) were tested. Three components (receptor fluid, applied formulation and skin samples) were sampled for subsequent analysis. Receptor fluid was sampled at 3 and 6 hours (without volume replacement) and stored at −20° C. until analysis. At the end of the experiment, the applied formulation was recovered from the donor chamber and recorded as the unabsorbed dose. The skin was then blotted dry with a Kimwipe® and tape-stripped skin (12 tape strips) was obtained. The first tape strip (3M scotch tape) was used to remove excess of formulation remaining on the skin and was discarded. Then a total of 11 tape strips were used to partially remove the stratum corneum. These tape strips were kept in labeled glass vial. Then using a hole-puncher the section of skin exposed to the formulation was removed and the corresponding weight of the skin sample was recorded. All samples were stored at −20° C. until analysis. […]

burn wound = experiment: Burn wound healing in mice (deep partial thickness thermal injury, degree IIb); assay type: in vivo
Method: In the studies described herein, all mice were initially anesthetized using mixture of isoflurane/oxygen (Iso about 2-2.5%/oxygen flow rate of about 1.5-2 L/min) in an induction chamber, then moved to a Baines system with a 1-2.5%/1.5-2 L/min flow rate. During anesthesia the mice were placed on a warming pad with a nose cone over the mice to maintain the anesthetic state. The toe nails were trimmed with clippers. A metal rod (25 g, 1 cm in diameter) was heated to 95-100° C. by submersion in boiling water for 3-5 min. The rod was immediately positioned vertically for 6 seconds without additional pressure on the dorsal skin of mice that had also been depilated 3 days before wounding. This procedure induces a deep partial thickness thermal injury (degree IIb). The severity of the thermal injury is classified according to Exp Dermatol. 2010; 19(9):777-783.

[2] = Compound A concentration at saturation in penetration enhancer vehicles (UPLC); assay type: physicochemical
Method: Compound A was dissolved at saturation in various vehicles containing PE in pH 5 acetate buffer (see Table 2). An excess amount of Compound A and the corresponding vehicle were mixed by rotary mixer at room temperature for 24 hours and subsequent filtration through 0.22 μm cellulose acetate membrane. Concentration of Compound A was measured by UPLC.

[3] = Concentration of Compound A in skin after application of gel (FIG. 3B); settings: 50 μL gel, 0.35% w/v Compound A
Method: FIG. 3A is an image of skin to which a volume (50 μL) of a representative formulation of the invention that includes Compound A was applied. The applied formulation (gel) includes Compound A at a concentration of 0.35% w/v in a vehicle containing propylene glycol (20% w/w), Carbopol 940 (0.5% w/v), methyl paraben (0.2% w/w), propyl paraben (0.02% w/w) and acetate buffer pH 5 (QS). Triethylamine was used to adjust the final formulation pH to 5-6.
(§1) FIG. 3B compares concentration of Compound A (μg/μL) in the skin at 4, 6, and 24 hours after application of a volume (50 μL) of a representative formulation of the invention that includes Compound A as described above for FIG. 3A.
as §1, with “FIG. 3A is an image of skin to which a volume (50 μL) of a representative formulation of the invention that includes Compound A was applied. FIG. 3B” for “FIG. 3B”

CC[C@H](C)[C@H](NC(=O)CCC(=O)O)C(=O)NCC(=O)N1C(=O)N(C2CCCCC2)C[C@H]1C(=O)NCc1nn[nH]n1 [Compound C2, 4-(((2S,3S)-1-((2-((S)-5-(((2H-tetrazol-5-yl)methyl)carbamoyl)-3-cyclohexyl-2-oxoimidazolidin-1-yl)-2-oxoethyl)amino)-3-methyl-1-oxopentan-2-yl)amino)-4-oxobutanoic acid]
Compound A in tape-stripped skin samples, Average ([1]; Water + 20% N-methyl-2-pyrollidone (NMP), 6 hour exposure): 4846 ng/g | Skin concentration (Compound A in tape-stripped skin, single replicates) ([1]; Water + 20% NMP, 6 h exposure): 4313 ng/g and 4985 ng/g and 5241 ng/g | Skin concentration (Compound A in tape-stripped skin, single replicates) ([1]; pH5 acetate buffer + 10% DMI, 6 h exposure): 13975 ng/g and 6214 ng/g and 6311 ng/g | Compound A in tape-stripped skin samples, Average ([1]; pH5 acetate buffer + 10% Dimethyl Isosorbide (DMI), 6 hour exposure): 8833 ng/g | Skin concentration (Compound A in tape-stripped skin, single replicates) ([1]; pH5 acetate buffer + 10% TC, 6 h exposure): 5869 ng/g and 8886 ng/g and 1629 ng/g | Compound A in tape-stripped skin samples, Average ([1]; pH5 acetate buffer + 10% Transcutol (TC), 6 hour exposure): 5461 ng/g | Skin concentration (Compound A in tape-stripped skin, single replicates) ([1]; pH5 acetate buffer + 10% Urea, 6 h exposure): 5588 ng/g and 19422 ng/g and 2943 ng/g | Compound A in tape-stripped skin samples, Average ([1]; pH5 acetate buffer + 10% Urea, 6 hour exposure): 9317 ng/g | Skin concentration (Compound A in tape-stripped skin, single replicates) ([1]; pH5 acetate buffer + 15% Tw80, 6 h exposure): 4937 ng/g and 1968 ng/g and 4442 ng/g | Compound A in tape-stripped skin samples, Average ([1]; pH5 acetate buffer + 15% Tween 80, 6 hour exposure): 3782 ng/g | Skin concentration (Compound A in tape-stripped skin, single replicates) ([1]; pH5 acetate buffer + 20% PG, 6 h exposure): 4785 ng/g and 10012 ng/g and 6515 ng/g and 4784 ng/g | Compound A in tape-stripped skin samples, Average ([1]; pH5 acetate buffer + 20% Propylene Glycol (PG), 6 hour exposure): 7104 ng/g | Average skin concentrations ([1]; tape-stripped skin, 6 hours, span over the six formulations): 3700 to 9300 ng/g | Burn wound healing (percent of original wound size, falling of scabs) (burn wound; subcutaneous injection, solution in PBS 0.56 mg/ml, vs saline, Day 0 to Day 30): attenuation of initial burn expansion in the zone of stasis and improved burn wound healing | Quality of healed wound (epidermal thickness, decorin level, collagen level) (burn wound; topical gel): improves quality of healed wound | Burn wound healing (percent of original wound size, falling of scabs) (burn wound; topical gel vs saline control): attenuation of initial burn expansion in the zone of stasis and improved burn wound healing | Burn wound healing (percent of original wound size) (burn wound; topical gel vs vehicle control, repeated study, Day 0 to Day 24): attenuation of initial burn expansion in the zone of stasis and improved burn wound healing | Compound A Concentration in Formulation ([2]; Water + 20% N-methyl-2-pyrollidone (NMP)): 1.13 mg/mL | Compound A Concentration in Formulation ([2]; pH5 acetate buffer + 10% Transcutol (TC)): 2.99 mg/mL | Compound A Concentration in Formulation ([2]; pH5 acetate buffer + 10% dimethylisosorbide (DMI)): 3.18 mg/mL | Compound A Concentration in Formulation ([2]; pH5 acetate buffer + 10% urea): 3.04 mg/mL | Compound A Concentration in Formulation ([2]; pH5 acetate buffer + 15% TWEEN 80): 1.56 mg/mL | Compound A Concentration in Formulation ([2]; pH5 acetate buffer + 20% propylene glycol (PG), room temperature 24 hours): 2.82 mg/mL | Stability and retention in skin (concentration at 4, 6 and 24 hours) [3]: stable and effectively retained in the skin

CC[C@H](C)[C@H](NC(=O)CCC(=O)O)C(=O)NCC(=O)N1C(=O)N(C2CCCCC2)C[C@H]1C(=O)NCc1nn[nH]n1 [Compound 1A, 4-(((2S,3S)-1-((2-((S)-5-(((2H-tetrazol-5-yl)methyl)carbamoyl)-3-cyclohexyl-2-oxoimidazolidin-1-yl)-2-oxoethyl)amino)-3-methyl-1-oxopentan-2-yl)amino)-4-oxobutanoic acid]
In vivo performance of gel (burn wound; 3.6 mg/mL gel, pH 6.0 with triethanolamine, compared with Compound 1 gel (triethylamine)): performance comparable to that of another representative formulation
